Source: patent US20230126893A1, “[(1,4,5-TRISUBSTITUTED-1H-PYRAZOL-3-YL)SULFANYL]ACETIC ACID DERIVATIVES, SALTS THEREOF, AND USE THEREOF AS ACTIVE HERBICIDAL INGREDIENTS” (BAYER AKTIENGESELLSCHAFT, priority 2020, published 2023)

Test system: Echinochloa crus-galli
Test: Pre-emergence herbicidal effect against ECHCG
Assay type: in vivo
Details: 1280 g/ha, visual score after 3 weeks, 100% = plants have died, 0% = like control plants
Excerpt: (§1) 1. Pre-emergence herbicidal effect and crop plant compatibility Seeds of monocotyledonous and dicotyledonous weed plants and crop plants are laid out in sandy loam soil in wood-fibre pots and covered with soil. The compounds of the invention, formulated in the form of wettable powders (WP) or as emulsion concentrates (EC), are then applied to the surface of the covering soil as aqueous suspension or emulsion at a water application rate equating to 600 to 800 L/ha with addition of 0.2% wetting agent. After the treatment, the pots are placed in a greenhouse and kept under good growth conditions for the trial plants. The damage to the test plants is scored visually after a test period of 3 weeks by comparison with untreated controls (herbicidal activity in percent (%): 100% activity=the plants have died, 0% activity=like control plants). [table]

| SMILES | Pre-emergence action against ECHCG |
| --- | --- |
| O=C(O)CSc1nn(-c2ccccc2F)c(-c2cnccn2)c1Br [VI-002] | 90% |
| CCOC(=O)CNC(=O)CSc1nn(-c2ccccc2F)c(-c2ccc(F)c(F)c2)c1Br [VII-003] | 100% |

Test system: Lolium rigidum
Test: Pre-emergence herbicidal effect against LOLRI
Assay type: in vivo
Details: 1280 g/ha, visual score after 3 weeks, 100% = plants have died, 0% = like control plants
Excerpt: as §1

| SMILES | Pre-emergence action against LOLRI |
| --- | --- |
| CCOC(=O)CNC(=O)CSc1nn(-c2ccccc2F)c(-c2ccc(F)c(F)c2)c1Br [VII-003] | 100% |

Test system: Poa annua
Test: Pre-emergence herbicidal effect against POAAN
Assay type: in vivo
Details: 1280 g/ha, visual score after 3 weeks, 100% = plants have died, 0% = like control plants
Excerpt: as §1

| SMILES | Pre-emergence action against POAAN |
| --- | --- |
| CCOC(=O)CSc1nn(-c2ccccc2F)c(-c2ccc(Br)nc2)c1Br [II-015] | 90% |
| O=C(O)CSc1nn(-c2ccccc2F)c(-c2cnccn2)c1Br [VI-002] | 100% |
| CCOC(=O)CNC(=O)CSc1nn(-c2ccccc2F)c(-c2ccc(F)c(F)c2)c1Br [VII-003] | 100% |
| COC(=O)CNC(=O)CSc1nn(-c2ccccc2F)c(-c2ccc(F)c(F)c2)c1[N+](=O)[O-] [VII-004] | 100% |
| COC(=O)CN(C)C(=O)CSc1nn(-c2ccccc2F)c(-c2cccnc2)c1Br [VII-008] | 90% |

Test system: Setaria viridis
Test: Pre-emergence herbicidal effect against SETVI
Assay type: in vivo
Details: 1280 g/ha, visual score after 3 weeks, 100% = plants have died, 0% = like control plants
Excerpt: as §1

| SMILES | Pre-emergence action against SETVI |
| --- | --- |
| O=C(O)CSc1nn(-c2ccccc2F)c(-c2cnccn2)c1Br [VI-002] | 90% |
| CCOC(=O)CNC(=O)CSc1nn(-c2ccccc2F)c(-c2ccc(F)c(F)c2)c1Br [VII-003] | 100% |

Test system: Tripleurospermum inodorum
Test: Pre-emergence herbicidal effect against MATIN
Assay type: in vivo
Details: 1280 g/ha, visual score after 3 weeks, 100% = plants have died, 0% = like control plants
Excerpt: as §1

| SMILES | Pre-emergence action against MATIN |
| --- | --- |
| CCOC(=O)CSc1nn(-c2ccc(Cl)cc2Cl)c(-c2ccc(F)c(F)c2)c1Br [Example I-026] | 100% |
| CCOC(=O)CSc1nn(-c2ccccc2F)c(-c2ccc(Br)nc2)c1Br [II-015] | 100% |
| O=C(O)CSc1nn(-c2ccccc2F)c(-c2cnccn2)c1Br [VI-002] | 90% |
| CCOC(=O)CNC(=O)CSc1nn(-c2ccccc2F)c(-c2ccc(F)c(F)c2)c1Br [VII-003] | 100% |

Test system: Stellaria media
Test: Pre-emergence herbicidal effect against STEME
Assay type: in vivo
Details: 1280 g/ha, visual score after 3 weeks, 100% = plants have died, 0% = like control plants
Excerpt: as §1

| SMILES | Pre-emergence action against STEME |
| --- | --- |
| CCOC(=O)CSc1nn(-c2ccccc2F)c(-c2ccc(Br)nc2)c1Br [II-015] | 100% |
| O=C(O)CSc1nn(-c2ccccc2F)c(-c2cnccn2)c1Br [VI-002] | 90% |
| CCOC(=O)CNC(=O)CSc1nn(-c2ccccc2F)c(-c2ccc(F)c(F)c2)c1Br [VII-003] | 100% |
| COC(=O)CNC(=O)CSc1nn(-c2ccccc2F)c(-c2ccc(F)c(F)c2)c1[N+](=O)[O-] [VII-004] | 100% |

Test system: Veronica persica
Test: Pre-emergence herbicidal effect against VERPE
Assay type: in vivo
Details: 1280 g/ha, visual score after 3 weeks, 100% = plants have died, 0% = like control plants
Excerpt: as §1

| SMILES | Pre-emergence action against VERPE |
| --- | --- |
| CCOC(=O)CNC(=O)CSc1nn(-c2ccccc2F)c(-c2ccc(F)c(F)c2)c1Br [VII-003] | 100% |

Test system: Alopecurus myosuroides
Test: Post-emergence herbicidal effect against ALOMY
Assay type: in vivo
Details: 1280 g/ha, visual score after about 3 weeks, 100% = plants have died, 0% = like control plants
Description: (§2) [table] 2. Post-emergence herbicidal effect and crop plant compatibility Seeds of monocotyledonous and dicotyledonous weed and crop plants are laid out in sandy loam soil in wood-fibre pots, covered with soil and cultivated in a greenhouse under good growth conditions. 2 to 3 weeks after sowing, the test plants are treated at the one-leaf stage. The compounds of the invention, formulated in the form of wettable powders (WP) or as emulsion concentrates (EC), are then sprayed onto the green parts of the plants as aqueous suspension or emulsion at a water application rate equating to 600 to 800 l/ha with addition of 0.2% wetting agent. After the test plants have been left to stand in the greenhouse under optimal growth conditions for about 3 weeks, the action of the preparations is assessed visually in comparison to untreated controls (herbicidal action in percent (%): 100% activity=the plants have died, 0% activity=like control plants).

| SMILES | Post-emergence action against ALOMY |
| --- | --- |
| O=C(O)CSc1nn(-c2ccccc2F)c(-c2cnccn2)c1Br [VI-002] | 90% |
| CCOC(=O)CNC(=O)CSc1nn(-c2ccccc2F)c(-c2ccc(F)c(F)c2)c1Br [VII-003] | 100% |

Test system: Echinochloa crus-galli
Test: Post-emergence herbicidal effect against ECHCG
Assay type: in vivo
Details: 1280 g/ha, visual score after about 3 weeks, 100% = plants have died, 0% = like control plants
Description: as §2

| SMILES | Post-emergence action against ECHCG |
| --- | --- |
| O=C(O)CSc1nn(-c2ccccc2F)c(-c2cnccn2)c1Br [VI-002] | 90% |

Test system: Poa annua
Test: Post-emergence herbicidal effect against POAAN
Assay type: in vivo
Details: 1280 g/ha, visual assessment about 3 weeks after treatment, 100% = plants have died, 0% = like control plants
Description: as §2

| SMILES | Post-emergence action against POAAN |
| --- | --- |
| CCOC(=O)CSc1nn(-c2ccccc2F)c(-c2ccc(Br)nc2)c1Br [II-015] | 90% |
| CCOC(=O)CNC(=O)CSc1nn(-c2ccccc2F)c(-c2ccc(F)c(F)c2)c1Br [VII-003] | 100% |

Test system: Abutylon threophrasti
Test: Post-emergence herbicidal effect against ABUTH
Assay type: in vivo
Details: 1280 g/ha, visual assessment about 3 weeks after treatment, 100% = plants have died, 0% = like control plants
Description: as §2

| SMILES | Post-emergence action against ABUTH |
| --- | --- |
| CCOC(=O)CSc1nn(-c2ccccc2F)c(-c2ccc(Br)nc2)c1Br [II-015] | 90% |
| COC(=O)CN(C)C(=O)CSc1nn(-c2ccccc2F)c(-c2cccnc2)c1Br [VII-008] | 90% |

Test system: Bassia scoparia
Test: Post-emergence herbicidal effect against KCHSC
Assay type: in vivo
Details: 1280 g/ha, visual assessment about 3 weeks after treatment, 100% = plants have died, 0% = like control plants
Description: as §2

| SMILES | Post-emergence action against KCHSC |
| --- | --- |
| COC(=O)CN(C)C(=O)CSc1nn(-c2ccccc2F)c(-c2cccnc2)c1Br [VII-008] | 90% |

Test system: Tripleurospermum inodorum
Test: Post-emergence herbicidal effect against MATIN
Assay type: in vivo
Details: 1280 g/ha, visual assessment about 3 weeks after treatment, 100% = plants have died, 0% = like control plants
Description: as §2

| SMILES | Post-emergence action against MATIN |
| --- | --- |
| CCOC(=O)CSc1nn(-c2ccccc2F)c(-c2ccc(Br)nc2)c1Br [II-015] | 90% |
| O=C(O)CSc1nn(-c2ccccc2F)c(-c2cnccn2)c1Br [VI-002] | 90% |
| CCOC(=O)CNC(=O)CSc1nn(-c2ccccc2F)c(-c2ccc(F)c(F)c2)c1Br [VII-003] | 90% |

Test system: Stellaria media
Test: Post-emergence herbicidal effect against STEME
Assay type: in vivo
Details: 1280 g/ha, visual assessment about 3 weeks after treatment, 100% = plants have died, 0% = like control plants
Description: as §2

| SMILES | Post-emergence action against STEME |
| --- | --- |
| CCOC(=O)CNC(=O)CSc1nn(-c2ccccc2F)c(-c2ccc(F)c(F)c2)c1Br [VII-003] | 90% |

Test system: Veronica persica
Test: Post-emergence herbicidal effect against VERPE
Assay type: in vivo
Details: 1280 g/ha, visual assessment about 3 weeks after treatment, 100% = plants have died, 0% = like control plants
Description: as §2

| SMILES | Post-emergence action against VERPE |
| --- | --- |
| CCOC(=O)CSc1nn(-c2ccc(Cl)cc2Cl)c(-c2ccc(F)c(F)c2)c1Br [Example I-026] | 90% |
| CCOC(=O)CSc1nn(-c2ccccc2F)c(-c2ccc(Br)nc2)c1Br [II-015] | 90% |
| O=C(O)CSc1nn(-c2ccccc2F)c(-c2cnccn2)c1Br [VI-002] | 90% |
| CCOC(=O)CNC(=O)CSc1nn(-c2ccccc2F)c(-c2ccc(F)c(F)c2)c1Br [VII-003] | 90% |
| COC(=O)CN(C)C(=O)CSc1nn(-c2ccccc2F)c(-c2cccnc2)c1Br [VII-008] | 90% |
